Data taken from PMC6713628 (Investigational new drugs, 2019).
Where two headings read alike, the source gives them in different places.

Tests used:
[1] = system: white blood cells; assay: Emax model of percent decrease of WBC from baseline to nadir versus exposure; format: in vivo, cancer patients with solid tumors (humans)
[2] = system: platelets; format: in vivo, cancer patients with solid tumors (humans); details: sigmoid Emax model
[3] = lactone form; ref 32 (Leggas et al., 2009); cited from earlier work
[4] = more lipophilic than camptothecin; cited from earlier work
[5] = system: UGT1A1; details: primarily hepatic UGT1A1; cited from earlier work
[6] = for IIV of clearance: univariate analysis

## CC[C@@]1(O)C(=O)OCc2c1cc1n(c2=O)Cc2c-1nc1ccc(O)cc1c2[Si](C)(C)C(C)(C)C [AR-67, 7-t-butyldimethylsilyl-10-hydroxycamptothecin]
[1]; AUC0-∞ as independent variable, hyperbolic Emax model, 22 patients, Cycle 1
  AUC ED50, percent decrease of WBC: 397.6 ng·h/mL
[1]; Cmax as independent variable, sigmoid Emax model
  Cmax ED50, percent decrease of WBC: 326.8 ng/mL
[2]; AUC0-∞ as independent variable, 22 patients, Cycle 1
  AUC ED50, percent decrease of platelets: 276.8 ng·h/mL
[2]; Cmax as independent variable
  Cmax ED50, percent decrease of platelets: 281.1 ng/mL
[3]
  overall protein binding, lactone: 95.4%
[4]
  lipophilicity relative to camptothecin: about 25 times
[5]
  in vitro interaction with UGT1A1: weak
[6]; V1=V1TV×(AGE/62)^θ, original dataset
  AGE on V1 (covariate effect exponent), estimate: 3.36
[6]; before incorporation of age into the model
  Interindividual variability in V1: 118%
[6]; bootstrap n=1000 datasets
  AGE on V1, bootstrap median: 3.48
  CL, bootstrap median: 31.9 L/h
  Q, bootstrap median: 29.0 L/h
  V1, bootstrap median: 6.65 L
  V2, bootstrap median: 25.8 L
  ω2 V1, bootstrap median: 0.856
[6]; final model
  Interindividual variability (CV%) of population CL: 29.1%
[6]; final model, original dataset
  V2 (peripheral volume), population estimate: 25.0 L
  ω2 CL (interindividual variability), estimate: 0.0849
  ω2 V1 (interindividual variability), estimate: 0.957
[6]; final model, original dataset, typical value for subjects aged 62 years
  V1 (central volume), population estimate: 6.83 L
[6]; final model, with age as covariate
  Interindividual variability (CV%) of population V1: 97.8%
[6]; BSA included as covariate on CL
  IIV of clearance: 25.5%
[6]; before inclusion of BSA
  IIV of clearance: 29.2%
